Measurements reported in US20050050594A1, “Tryptophan synthase as a site of herbicide action” (priority 1999, published 2005).
Where two headings read alike, the source gives them in different places. Marks after values point to notes of the source that are not given here.

Tests used:
[1] = test system: a variety of dicotyledonous and monocotyledonous plants; assay: Postemergence greenhouse herbicidal test; format: in vivo; conditions: post emergence greenhouse test, 4 kg/ha
Method: The herbicidal activity of the compounds was tested as described in the U.S. Pat. No. 5,635,449. […] In the tests, seedling plants are grown in jiffy flats for about two weeks. The test compounds are dispersed in 50/50 acetone/water mixtures containing 0.5% TWEEN®20, a polyoxyethylene sorbitan monolaurate surfactant of Atlas Chemical Industries, in sufficient quantities to provide the equivalent of about 1.0 kg to 8.0 kg per hectare of test compound when applied to the plants through a spray nozzle operating at 40 psi for a predetermined time. After spraying, the plants are placed on greenhouse benches and are cared for in the usual manner, commensurate with conventional greenhouse practices. From four to five weeks after treatment, the seedling plants are examined and rate according to the rating system set forth below.

Arabidopsis TS enzyme = biological target: T1, Arabidopsis TS enzyme (Arabidopsis thaliana, UniProt Q42529); assay: TSα assay with recombinant plant TSα and TSβ expressed in E. coli; format: biochemical; conditions: inhibitor 82 uM; pAC 758 (1.5 ug) + pAC 755 (3 ug)
T1 construct: GST (N, cleaved yes); made in house; host or cells: E. coli DH5α (pGEX-2T constructs)
T1 sequence (Q42529 with tags, fused parts or gaps): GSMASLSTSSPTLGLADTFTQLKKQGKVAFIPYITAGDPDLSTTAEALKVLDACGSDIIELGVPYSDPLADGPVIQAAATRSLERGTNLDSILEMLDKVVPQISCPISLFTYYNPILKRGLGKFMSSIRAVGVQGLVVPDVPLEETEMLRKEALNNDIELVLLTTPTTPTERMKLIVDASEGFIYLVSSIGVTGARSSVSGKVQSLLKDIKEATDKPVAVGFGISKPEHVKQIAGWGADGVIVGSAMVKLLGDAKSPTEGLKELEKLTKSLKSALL
T1 sequence (P14671 with tags, fused parts or gaps partner): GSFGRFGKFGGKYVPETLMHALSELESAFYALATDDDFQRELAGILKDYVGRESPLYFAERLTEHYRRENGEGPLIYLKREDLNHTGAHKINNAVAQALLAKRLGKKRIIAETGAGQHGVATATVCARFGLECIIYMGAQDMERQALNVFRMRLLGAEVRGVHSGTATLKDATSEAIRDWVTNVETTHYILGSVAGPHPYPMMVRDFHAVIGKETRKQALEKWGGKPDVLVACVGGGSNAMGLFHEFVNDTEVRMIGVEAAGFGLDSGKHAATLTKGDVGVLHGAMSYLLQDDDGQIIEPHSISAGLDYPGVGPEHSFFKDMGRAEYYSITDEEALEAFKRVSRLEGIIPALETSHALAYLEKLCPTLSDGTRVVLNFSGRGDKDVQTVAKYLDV
Method: The plant TS proteins were expressed as fusion proteins with glutathione transferase (GST) to facilitate purification. After purification, the GST protein was cleaved off with thrombin as described above before the plant TS assays were performed. After thrombin cleavage, both TSα and TSβ-subunit proteins retained a Gly-Ser residue on the N-terminal of the protein in addition to the TS sequence. […]
The TSα enzyme assay was conducted as described in Example 3 for Salmonella TSα.
Specifically, phenylthiophosphonic acid compounds were used. The TSα assay conditions were as described for Salmonella TSα in Example 3 except that recombinant plant proteins were used instead of the Salmonella enzyme.

TSα subunit = TSα subunit reaction; cited from earlier work
[2] = biological target: T2, Salmonella typhimurium tryptophan synthase holoenzyme (α2β2), TSα reaction (Salmonella typhimurium, UniProt P00929); assay: Inhibition of tryptophan synthase by the TSα reaction, microtiter kinetic coupled enzyme assay; format: biochemical
T2 construct: made in house; host or cells: E. coli strain CB149pSTB7
From the text: Inhibitors of TS were identified by their ability to inhibit the production of glyceraldehyde-3-P by the TSα reaction of the Salmonella typhimurium holoenzyme (α2β2) in the presence of a limiting amount of indole-3-glycerolphosphate and an excess of serine
The assay was developed as a new microtiter plate kinetic enzyme assay based on the combined methods of Creighton (EurJBch 13:1-10, 1970) and Creighton and Yanofsky (JBC 241:980, 1966) with modifications. The rate of glyceraldehyde production was measured as the linear […] (spectrophotometric absorbance at 340 nm) in the presence of glyceraldehyde-3-phosphate dehydrogenase in a coupled enzyme assay.
The assay solution contained a test inhibitor compound, 50 mM Tris-Cl (pH 7.8), 6 mM sodium arsenate, 5 μg/ml pyridoxal phosphate, 0.5 mM DTT, 0.18M NaCl, 60 mM serine, 1.6 mM NAD+, 8 e.u./ml yeast glyceraldehyde-3-phosphate dehydrogenase (Sigma, Catalog #G2647; Kirschner et al., Eur J Bch, 1975, 60:513 and approximately 1.5 e.u. Salmonella TS. 100 μM IGP was added to start the reaction, which was run at 37° C. and using 300 μl per assay in a microtiter plate.
The substrate IGP was used at 1.5 to 2 times its Km concentration to enhance the likelihood of identifying weak inhibitors, binding at the substrate binding site. This approach to identifying enzyme inhibitors was novel, since an excess of all substrates, (at least 5-times the Km value of each), is conventionally used in the measurement of enzyme activity.
Potential inhibitors were evaluated by adding 100 μM inhibitor (equimolar to substrate IGP):or less, in a 1:1 dilution series down from 100 μM, until the inhibition measured was less than 15%. Reaction rates at Vmax were compared in the presence and absence of inhibitors.
In addition, some weaker inhibitors were identified following preincubation of the inhibitor with the TS assay mix for 24 hrs prior to the addition of IGP. The identifying weaker inhibitors is to aid in a quantitative structure activity relationship (QSAR) evaluation, or to identify new herbicidal inhibitor leads. The previously known inhibitor IPP was used as a standard in all tests, where the I50 for IPP was 1-2 uM.

TSβ (Spinacea enzyme) = assay: TSβ assay with partially purified spinach enzyme; format: biochemical, Spinacea oleracea; set-up: key: the increase in the number of “+” corresponds to the increase of inhibition; +++++: the increase in the number of “+” corresponds to the increase of inhibition; +++++++: the increase in the number of “+” corresponds to the increase of inhibition; conditions: determined qualitatively
Method: The assay was conducted in microfuge tubes by the TSβ reaction (indole+L-serine→L-tryptophan+H2O). 100 μL of extract was mixed with 150 μL of 0.4 mM indole, 80 mM serine, 0.03 mM PLP, 0.1 M Tris-Cl buffer pH 7.8, containing 7.5 μL of saturated NaCl. The mixture was incubated at 21° C. for increasing time intervals, from 10 min to several hours. The reaction was terminated by adding 25 μL 1 N NaOH, then 1 mL toluene with mixing, and then centifuging in a microfuge 2 min at 10,000×G to partition remaining indole into the toluene phase and away from the enzyme. Remaining indole was subsequently partitioned into the indole reagent phase and reacted with dimethylaminobenzaldehyde: 500 μL of the toluene layer from the microfuge tubes was mixed with 1 ml of the indole reagent in another tube and allowed to separate for 20 min, then the lower layer was carefully pipetted into a cuvette and its absorbance measured at 540 nm. This part of the assay was conducted as known in the art.
A unique microtiter plate method was also developed to streamline the partitioning steps and data collection. First, the TSβ reaction was performed as above in microfuge tubes. […] The plate was covered by a mylar sheet (to protect the plate reader and avoid evaporation) and absorbance was monitored on the plate reader at 535 nm. […]
TS was partially purified from spinach for use in the TSβ assay. The greatest degree of purification was achieved by homogenizing the tissue, preparing the 30-50% ammonium sulfate fraction and freezing it, thawing it, and applying the dissolved precipitate to an FPLC column (Waters SW300, Waters Corporation, Franklin, Mass.) to separate the TS activity (measured as TSβ) from the bulk of the protein. […] Because of the low yield of the assay of partially purified plant TS, endogenous enzyme was measured in crude extracts or in enzyme preparations involving one or two purification steps. […]

T2 sequence (P00929 whole entry): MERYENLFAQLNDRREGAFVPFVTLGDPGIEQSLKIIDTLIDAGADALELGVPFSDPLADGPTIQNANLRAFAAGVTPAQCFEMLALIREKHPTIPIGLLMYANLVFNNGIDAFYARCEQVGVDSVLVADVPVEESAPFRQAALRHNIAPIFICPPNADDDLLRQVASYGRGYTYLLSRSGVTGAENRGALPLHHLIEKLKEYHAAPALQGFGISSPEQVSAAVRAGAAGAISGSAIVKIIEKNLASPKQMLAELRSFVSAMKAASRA
T2 sequence (P0A2K1 2-397, further chain): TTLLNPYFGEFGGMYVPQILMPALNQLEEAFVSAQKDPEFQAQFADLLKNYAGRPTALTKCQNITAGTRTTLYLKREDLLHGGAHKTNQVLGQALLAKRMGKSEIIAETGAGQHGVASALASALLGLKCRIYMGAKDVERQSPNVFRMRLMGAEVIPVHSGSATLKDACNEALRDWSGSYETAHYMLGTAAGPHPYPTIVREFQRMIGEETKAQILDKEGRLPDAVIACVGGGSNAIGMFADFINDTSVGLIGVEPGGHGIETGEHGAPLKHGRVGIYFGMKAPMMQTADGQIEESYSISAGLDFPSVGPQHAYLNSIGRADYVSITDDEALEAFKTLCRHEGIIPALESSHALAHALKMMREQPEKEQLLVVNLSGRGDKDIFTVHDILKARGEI

Molecule	Herbicidal Activity [1]	TSα activity, % of control (Arabidopsis TS enzyme)	TSα activity, relative Vmax (Arabidopsis TS enzyme) [mOD/min]	Ki (TSα subunit) [nM]	IC50 ([2]; I50 TS, TSα reaction of the highly purified Salmonella typhimiurium holoenzyme) [nM]	IC50 ([2]; I50 for IPP used as a standard in all tests, TSα reaction, 100 μM IGP) [nM]	IC50 ([2]; TS inhibition I50, TSα reaction, Salmonella holoenzyme, 30 min at 37° C., 100 μM IGP) [nM]	TSβ (Spinacea enzyme), relative activity (TSβ (Spinacea enzyme))	IC50 ([2]; TSα activity (Salmonella enzyme) I50) [nM]	IC50 ([2]; TSα reaction, Salmonella holoenzyme, 30 min at 37° C., 100 μM IGP, read-out: TS inhibition I50) [nM]	IC50 ([2]; read-out: TSα activity (Salmonella enzyme) I50) [nM]
O=P(O)(O)OCCCc1c[nH]c2ccccc12 [Compound 1, indole-3-propanol phosphate, reference compound]	inactive	35.9 % of control	2.223	15000	5000	1000 to 2000	2000				
Cc1ccc(SCCCCP(=O)(O)O)c(N)c1 [Phosphonic acid,-{4-[(2-amino-p-tolyl)thio]butyl}-]								+++++++*	1000		
Phosphonic acid, {4-[(o-aminophenyl)thio]butyl}-, compound with cyclohexylamine (1:2)								+++++		400	550
